Data: patent US20220177538A1, “CO-AGONISTS AT GLP-1 AND GIP RECEPTORS SUITABLE FOR ORAL DELIVERY” (Novo Nordisk A/S, priority 2020, published 2022)
Read-outs that look alike come from different tables or passages of the source. Starred links: 1 amine or outer side, 2 acyl side, 3 side chain; linkers in the order of their positions; H or OH if unused. Non-standard residues stand in square brackets, D forms with d. Residues, ends and D or L forms follow the SMILES beside them. Groups on a side chain read outwards from the residue. *: point of attachment. C18 diacid = O=C(O)CCCCCCCCCCCCCCCCC(=O)*; γGlu = O=C(O)[C@H](CCC(=O)[*:2])N[*:1]; εLys = N[C@@H](CCCCN[*:1])C(=O)[*:2]; Aib = CC(C)(N)C(=O)O

Key:
human GIP receptor = molecular target: T1, human GIP receptor (Homo sapiens, UniProt P48546); experiment: In vitro functional potency, CRE luciferase reporter, whole BHK cells (hGIPR); assay type: cell-based; conditions: BHK CRE luc2P hGIPR cells
T1 construct: expressed in transfected cells; host or cells: BHK (parent line BHKTS13), clone BHK CRE luc2P hGIPR
T1 sequence (P48546 22-466): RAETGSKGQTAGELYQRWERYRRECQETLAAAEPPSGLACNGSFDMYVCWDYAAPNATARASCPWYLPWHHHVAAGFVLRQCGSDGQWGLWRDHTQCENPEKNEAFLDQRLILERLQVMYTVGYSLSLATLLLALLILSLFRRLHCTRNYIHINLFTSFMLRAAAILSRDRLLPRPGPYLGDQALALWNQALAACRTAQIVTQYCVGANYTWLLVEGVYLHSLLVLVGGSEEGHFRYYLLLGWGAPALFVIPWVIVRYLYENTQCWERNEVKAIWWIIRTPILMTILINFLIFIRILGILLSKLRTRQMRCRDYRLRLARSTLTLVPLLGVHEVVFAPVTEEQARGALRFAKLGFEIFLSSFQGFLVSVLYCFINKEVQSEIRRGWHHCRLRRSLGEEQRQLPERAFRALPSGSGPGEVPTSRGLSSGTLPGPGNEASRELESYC
Method: (§1) The in vitro functional potency is the measure of target receptor activation in a whole cell assay.
(§2) In vitro functional potency was determined by measuring the response of the target receptor in a reporter gene assay in individual cell lines. […] When the respective receptor is activated, it results in the production of cAMP, which in turn results in expression of the luciferase protein. When assay incubation is completed, luciferase substrate (luciferin) is added resulting in the enzymatic conversion of luciferin to oxyluciferin and producing bioluminescence. The luminescence is measured as the readout for the assay.
(§3) The cells lines used in these assays were BHK cells with BHKTS13 as a parent cell line. The cell lines were derived from a clone containing the CRE luciferase element and were established by further transfection with the respective human receptor to obtain the relevant cell line: BHK CRE luc2P hGLP-1R or BHK CRE luc2P hGIPR. The cells were cultured at 37° C. with 5% CO2 in Cell Culture Medium. They were aliquoted and stored in liquid nitrogen. The cells were kept in continuous culture and were seeded out the day before each assay.
(§4) GLP-1R Cell Culture Medium consisted of DMEM medium with 10% FBS, 500 µg/mL G418, and 300 µg/mL hygromycin. GIPR Cell Culture Medium consisted of DMEM medium with 10% FBS, 400 µg/mL G418, and 300 µg/mL hygromycin. Assay Buffer consisted of DMEM w/o phenol red, 10 mM Hepes, 1× Glutamax. 1% ovalbumin, and 0.1% Pluronic F-68 with the addition of HSA at twice the final assay concentration.
(§5) 1) Cells were plated at 5000 cells/well and incubated overnight in the assay plate. 2) Cells were washed once in DPBS. 3) Stocks of the test compounds and reference compounds in concentrations ranging from […] were diluted 1:150 in Assay Buffer. Compounds were then diluted 1:10 in column 1 of a 96 deep well dilution plate and then carried across the row creating a 3.5 fold, 12 point dilution curve. 4) Assay Buffer (50 μl aliquot) with or without HSA was added to each well in the assay plate. 5) A 50 μl aliquot of compound or blank was transferred from the dilution plate to the assay plate containing the Assay Buffer with or without HSA. 6) The assay plate was incubated for 3 h in a 5% CO2 incubator at 37° C. 7) The cells were washed once with DPBS. 8) A 100 μl aliquot of DPBS was added to each well of the assay plate. 9) A 100 μl aliquot of steadylite plus reagent (light sensitive) was added to each well of the assay plate. 10) Each assay plate was covered with aluminum foil to protect it from light and shaken at 250 RPM for 30 min at room temperature. 11) Each assay plate was read in a microtiter plate reader.
(§6) The data from the microtiter plate reader was first regressed in an Excel in order to calculate the x-axis, log scale concentrations based on the individual test compound's stock concentration and the dilutions of the assay. […] The software performs a non-linear regression (log(agonist) vs response). A minimum of two replicates was measured for each sample. The reported values are averages of the replicates.

human GLP-1 receptor = human GLP-1 receptor (Homo sapiens, UniProt P43220); experiment: In vitro functional potency, CRE luciferase reporter, whole BHK cells (hGLP-1R); assay type: cell-based; set-up: expressed in transfected cells; host or cells: BHK (parent line BHKTS13), clone BHK CRE luc2P hGLP-1R; conditions: BHK CRE luc2P hGLP-1R cells
Method: as §1, §2, §3, §4, §5, §6

[1] = 0% HSA, read-out: hGIPR, CRE Luc 0% HSA EC50
[2] = hGIPR, CRE Luc 1% HSA EC50, 1% HSA
[3] = 0% HSA, read-out: hGLP-1R, CRE Luc 0% HSA EC50
[4] = hGLP-1R, CRE Luc 1% HSA EC50, 1% HSA

human GLP-1 receptor, sequence (P43220 24-463): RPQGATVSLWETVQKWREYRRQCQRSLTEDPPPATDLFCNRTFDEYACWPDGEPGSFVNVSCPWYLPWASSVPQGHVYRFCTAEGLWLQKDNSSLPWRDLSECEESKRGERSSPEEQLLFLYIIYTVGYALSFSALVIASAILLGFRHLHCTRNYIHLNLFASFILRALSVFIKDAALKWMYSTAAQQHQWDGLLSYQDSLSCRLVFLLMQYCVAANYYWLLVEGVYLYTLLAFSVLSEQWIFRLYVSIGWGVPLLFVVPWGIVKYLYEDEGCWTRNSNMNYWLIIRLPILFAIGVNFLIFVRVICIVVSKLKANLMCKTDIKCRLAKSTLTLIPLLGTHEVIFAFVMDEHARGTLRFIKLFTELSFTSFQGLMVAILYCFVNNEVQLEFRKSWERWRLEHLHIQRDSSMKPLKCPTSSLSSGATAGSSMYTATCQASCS

Compound	EC50 (human GIP receptor; [1]) [nM]	EC50 (human GIP receptor; [2]) [nM]	EC50 (human GLP-1 receptor; [3]) [nM]	EC50 (human GLP-1 receptor; [4]) [nM]	EC50 (human GIP receptor; hGIPR, CRE Luc 0% HSA EC50, 0% HSA) [nM]	EC50 (human GLP-1 receptor; hGLP-1R, CRE Luc 0% HSA EC50, 0% HSA) [nM]
CC[C@H](C)[C@H](NC(=O)[C@H](Cc1ccccc1)NC(=O)[C@H](CCC(=O)O)NC(=O)[C@H](CCCNC(=N)N)NC(=O)[C@H](C)NC(=O)[C@H](C)NC(=O)[C@H](CCC(N)=O)NC(=O)[C@H](CCCCNC(=O)[C@@H](N)CCCCNC(=O)[C@@H](N)CCCCNC(=O)CC[C@H](NC(=O)CCCCCCCCCCCCCCCCC(=O)O)C(=O)O)NC(=O)[C@H](CCC(=O)O)NC(=O)[C@H](CC(C)C)NC(=O)[C@H](CC(C)C)NC(=O)[C@@H](NC(=O)[C@H](CO)NC(=O)[C@H](Cc1ccc(O)cc1)NC(=O)[C@H](CC(=O)O)NC(=O)[C@H](CO)NC(=O)[C@@H](NC(=O)[C@H](Cc1ccccc1)NC(=O)[C@@H](NC(=O)CNC(=O)[C@H](CCC(=O)O)NC(=O)C(C)(C)NC(=O)[C@@H](N)Cc1ccc(O)cc1)[C@@H](C)O)[C@@H](C)O)[C@@H](C)CC)C(=O)N[C@@H](CC(N)=O)C(=O)N[C@@H](Cc1c[nH]c2ccccc12)C(=O)N[C@@H](CC(C)C)C(=O)N[C@@H](CC(C)C)C(=O)N[C@@H](C)C(=O)NCC(=O)NCC(=O)N1CCC[C@H]1C(=O)O [Compound 19] (H-Y[Aib]EGTFTSDYSILLEK([εLys-εLys-γGlu-C18 diacid])QAAREFINWLLAGGP-OH)	0.0065	0.275	0.0086	0.365		
CC[C@H](C)[C@H](NC(=O)[C@H](Cc1ccccc1)NC(=O)[C@H](CCC(=O)O)NC(=O)[C@H](CCCNC(=N)N)NC(=O)[C@H](C)NC(=O)[C@H](C)NC(=O)[C@H](CCC(N)=O)NC(=O)[C@H](CCCCNC(=O)[C@@H](N)CCCCNC(=O)[C@@H](N)CCCCNC(=O)CC[C@H](NC(=O)CCCCCCCCCCCCCCCCC(=O)O)C(=O)O)NC(=O)[C@H](CCC(=O)O)NC(=O)[C@H](CC(C)C)NC(=O)[C@H](CC(C)C)NC(=O)[C@@H](NC(=O)[C@H](CO)NC(=O)[C@H](Cc1ccc(O)cc1)NC(=O)[C@H](CC(=O)O)NC(=O)[C@H](CO)NC(=O)[C@@H](NC(=O)[C@H](Cc1ccccc1)NC(=O)[C@@H](NC(=O)CNC(=O)[C@H](CCC(=O)O)NC(=O)C(C)(C)NC(=O)[C@@H](N)Cc1ccc(O)cc1)[C@@H](C)O)[C@@H](C)O)[C@@H](C)CC)C(=O)N[C@@H](CC(N)=O)C(=O)N[C@@H](Cc1c[nH]c2ccccc12)C(=O)N[C@@H](CC(C)C)C(=O)N[C@@H](CC(C)C)C(=O)N[C@@H](C)C(=O)NCC(=O)NCC(=O)N1CCC[C@H]1C(=O)N[C@@H](CO)C(=O)N[C@@H](CO)C(=O)NCC(=O)N[C@@H](C)C(=O)O [Compound 21] (H-Y[Aib]EGTFTSDYSILLEK([εLys-εLys-γGlu-C18 diacid])QAAREFINWLLAGGPSSGA-OH)		0.131		0.118	0.0054	0.0057
CC[C@H](C)[C@H](NC(=O)[C@H](CO)NC(=O)[C@H](Cc1ccc(O)cc1)NC(=O)[C@H](CC(=O)O)NC(=O)[C@H](CO)NC(=O)[C@@H](NC(=O)[C@H](Cc1ccccc1)NC(=O)[C@@H](NC(=O)CNC(=O)[C@H](CCC(=O)O)NC(=O)C(C)(C)NC(=O)[C@@H](N)Cc1ccc(O)cc1)[C@@H](C)O)[C@@H](C)O)C(=O)N[C@@H](CC(C)C)C(=O)N[C@@H](CC(C)C)C(=O)N[C@@H](CCC(=O)O)C(=O)N[C@@H](CCCCNC(=O)[C@@H](N)CCCCNC(=O)[C@@H](N)CCCCNC(=O)CC[C@H](NC(=O)CCCCCCCCCCCCCCCCC(=O)O)C(=O)O)C(=O)N[C@@H](CCC(N)=O)C(=O)N[C@@H](C)C(=O)N[C@@H](C)C(=O)N[C@@H](CCCNC(=N)N)C(=O)N[C@@H](CCC(=O)O)C(=O)N[C@@H](Cc1ccccc1)C(=O)N[C@H](C(=O)N[C@@H](CC(N)=O)C(=O)N[C@@H](Cc1c[nH]c2ccccc12)C(=O)N[C@@H](CC(C)C)C(=O)N[C@@H](CC(C)C)C(=O)N[C@@H](C)C(=O)NCC(=O)NCC(=O)N1CCC[C@H]1C(=O)N[C@@H](CO)C(=O)N[C@@H](CO)C(=O)NCC(=O)N[C@@H](C)C(=O)N1CCC[C@H]1C(=O)N1CCC[C@H]1C(=O)N1CCC[C@H]1C(=O)N[C@@H](CO)C(=O)O)C(C)C [Compound 22] (H-Y[Aib]EGTFTSDYSILLEK([εLys-εLys-γGlu-C18 diacid])QAAREFVNWLLAGGPSSGAPPPS-OH)	0.0062	0.169	0.0028	0.171		
